Experimental data published in US4150970A, “Growth regulator for plants” (Board of Trustees of Michigan State University, priority 1977, dated 1979).

Key:
Type in all cases: in vivo
IR-8 rice seedlings [1] = test: Growth and water uptake of IR-8 rice seedlings (Example IV); details: for Dry Wt. per plant / Leaf Area per plant / Water Uptake per leaf area / Water Uptake per plant: 10 μg/liter
Procedure: (§1) Rice seed cv. IR-8, or Starbonnet was surface treated with 0.1 percent mercuric chloride and planted in 77 cc plastic cups containing vermiculite and watered with one-fourth Hoagland's nutrient solution containing 3 mM of nitrogen at pH 5.0. After 10 days, seedlings were transplanted to 220 cc specimen cups wrapped in aluminum foil and containing 180 cc of the same Hoagland's nutrient solution. Four seedlings were suspended in the solution with a sponge rubber disc. The plants were grown under a 8 h night at 25° C. and a 16 h day at 30° C. with 21 and 8 μwatts per cm^2 in the blue and red spectra respectively. In the test with varying light intensity the high light intensity was 30 13 and the low intensity was 15 and 8 μwatts per cm^2 for the blue and red spectra respectively. The nutrient solution was renewed every 2 or 3 days. After one week the plants were sorted for size and similar sized plants assigned to the same block for the experiment. Prior to the initiation of a test the plants in each cup were assigned treatment numbers by use of a random number table. […] Sixteen hours prior to a test the foil wrapped cups were tared, and filled with one-half Hoaglands solution containing 6 mM nitrogen. Eighteen μl of chloroform or chloroform containing 1.8 μg triacontanol were placed on 2 cm^2 of Whatman No. 1 filter papers, air dried and placed in the specimen cups. This concentration of 10 μg triacontanol/liter was used for all tests described in the following Examples except where specifically indicated to the contrary. Immediately prior to the test the cups were all brought up to 180 ml. including a set of cups without plants to measure evaporation.
(§2) Water uptake was measured by weighing the cups after removal of the plants and subtracting the tare and the water evaporated. For tests continued for more than one day, the solution used was measured every 3 days and new Hoagland's added and the pH maintained at 5.0 with sulfuric acid.
(§3) The plants were disected at harvest into shoots and roots. The expanded leaves were cut at the ligule and the newest leaf at the point it entered the sheath. The surface area of expanded leaves were measured using a Lambda Model LI-3000 planimeter. The plants were dried to constant weight in an oven at 100° C. and the roots, expanded leaves, and sheaths were weighed separately.
Four to 6 replicates were used in each experiment in a randomized complete block design. The data were submitted to analysis of variance. Means were compared by use of the L.S.D. except where there was only one degree of freedom for treatment. In these instances the F value from the analysis of variance was used for comparison of means.
To determine the effect of triacontanol on growth and water uptake of IR-8 rice seedlings, the seedlings were prepared as above explained. Alternate seedlings were treated with no triacontanol or with a concentration of 10 μg triacontanol per liter as above set forth. Leaf area, dry weight and water uptake were determined for each plant at 0 time and at 8, 24, 72 and 216 hour intervals.

Coho barley seedlings = test: Barley seedlings, triacontanol solutions applied to soil (Example XV)
Excerpt: To study the growth of 25-day-old "Coho" barley seedlings treated with triacontanol solutions applied to the soil in the greenhouse. Treatments were started when seedlings were 13 days old.

[2] = test system: Starbonnet rice seedlings; test: Dry weight, leaf area and water uptake of rice under two light intensities (Example XVI)
Procedure: as §1, §2, §3
Fourteen day old "Starbonnet" rice seedlings were prepared and treated with triacontanol as explained in Example IV above.
The increase in dry weight and leaf area and the water uptake of the rice seedlings treated with triacontanol under two different light intensities was determined. High light was 30 and 13 μwatts/cm^2 and low light 15 and 8 μwatts/cm^2 in the blue and red spectra respectively. The plants were exposed to these light conditions 36 hours prior to treatment. At zero time the plants under low light intensity weighed 26.0 mg with 4.41 cm^2 leaf area. The high light plants weighed 29.5 mg per plant with 4.01 cm^2 leaf area per plant. FIGS. 1, 2 and 3 of the accompanying drawings show the results of these tests. In each Figure, A=low light control; B=low light+triacontanol; C=high light control; and D=high light+triacontanol. Presented in tabular form, the data for FIGS. 1, 2 and 3 appears in Table XVI, as follows: […]

IR-8 rice seedlings [3] = test: Percent change in dry weight of rice seedlings in the dark (Example XVIII); details: 0.01 mg/l
Procedure: as §1
This example was run to determine the percent change in dry weight of whole 15-day-old "IR-8" rice seedlings treated with triacontanol in the dark as compared with a control. The dry weight at zero time was 37.3 mg per seedling. […]

plants = test: Plant growth regulation (general statement); details: crops
[4] = 10 μg per liter, nutrient solution

CCCCCCCCCCCCCCCCCCCCCCCCCCCCCCO [Triacontanol, 1-triacontanol]
time within which dry weight of entire plant significantly increased (IR-8 rice seedlings [1]; [4]): ≤ 3 days
time within which leaf area significantly increased (IR-8 rice seedlings [1]; [4]): ≤ 8 h
Dry Wt. per plant (IR-8 rice seedlings [1]; 8 hours): 53.4 mg
Leaf Area per plant (IR-8 rice seedlings [1]; 8 hours): 8.2 cm^2
Water Uptake per leaf area (IR-8 rice seedlings [1]; 8 hours): 0.25 ml/cm^2 leaf area
Water Uptake per plant (IR-8 rice seedlings [1]; 8 hours): 2.0 mL
Dry Wt. per plant (IR-8 rice seedlings [1]; 24 hours): 58.6 mg
Leaf Area per plant (IR-8 rice seedlings [1]; 24 hours): 9.0 cm^2
Water Uptake per leaf area (IR-8 rice seedlings [1]; 24 hours): 0.35 ml/cm^2 leaf area
Water Uptake per plant (IR-8 rice seedlings [1]; 24 hours): 3.2 mL
Dry Wt. per plant (IR-8 rice seedlings [1]; 72 hours): 81.7 mg
Leaf Area per plant (IR-8 rice seedlings [1]; 72 hours): 13.7 cm^2
Water Uptake per leaf area (IR-8 rice seedlings [1]; 72 hours): 1.34 ml/cm^2 leaf area
Water Uptake per plant (IR-8 rice seedlings [1]; 72 hours): 18.4 mL
Dry Wt. per plant (IR-8 rice seedlings [1]; 216 hours): 204.0 mg
Leaf Area per plant (IR-8 rice seedlings [1]; 216 hours): 22.4 cm^2
Water Uptake per leaf area (IR-8 rice seedlings [1]; 216 hours): 2.92 ml/cm^2 leaf area
Water Uptake per plant (IR-8 rice seedlings [1]; 216 hours): 65.5 mL
Seedling wt (Coho barley seedlings; nutrients 0, triacontanol 0.01 mg/L): 275 mg/shoot
Seedling wt (Coho barley seedlings; nutrients 0, triacontanol 0.10 mg/L): 270 mg/shoot
Seedling wt (Coho barley seedlings; nutrients 100 mg 20-20-20/L, triacontanol 0.01 mg/L): 310 mg/shoot
Seedling wt (Coho barley seedlings; nutrients 100 mg 20-20-20/L, triacontanol 0.10 mg/L): 316 mg/shoot
Seedling wt (Coho barley seedlings; nutrients 1000 mg 20-20-20/L, triacontanol 0.01 mg/L): 438 mg/shoot
Seedling wt (Coho barley seedlings; nutrients 1000 mg 20-20-20/L, triacontanol 0.10 mg/L): 442 mg/shoot
Dry Wt., Percent Increase from Zero Time ([2]; high light, 4 hr): 16%
Leaf Area, Percent Increase from Zero Time ([2]; high light, 4 hr): 19%
Water Uptake ([2]; high light, 4 hr): 192 μl/cm^2 leaf area
Dry Wt., Percent Increase from Zero Time ([2]; high light, 8 hr): 27%
Leaf Area, Percent Increase from Zero Time ([2]; high light, 8 hr): 38%
Water Uptake ([2]; high light, 8 hr): 351 μl/cm^2 leaf area
Dry Wt., Percent Increase from Zero Time ([2]; high light, 16 hr): 51%
Leaf Area, Percent Increase from Zero Time ([2]; high light, 16 hr): 88%
Water Uptake ([2]; high light, 16 hr): 649 μl/cm^2 leaf area
dry weight and leaf area gain under low light versus control under high light ([2]; low light conditions): gained as much dry weight and leaf area as the control plants did when subjected to high light conditions
Dry Wt., Percent Increase from Zero Time ([2]; low light, 4 hr): 10%
Leaf Area, Percent Increase from Zero Time ([2]; low light, 4 hr): 7%
Water Uptake ([2]; low light, 4 hr): 117 μl/cm^2 leaf area
Dry Wt., Percent Increase from Zero Time ([2]; low light, 8 hr): 23%
Leaf Area, Percent Increase from Zero Time ([2]; low light, 8 hr): 31%
Water Uptake ([2]; low light, 8 hr): 239 μl/cm^2 leaf area
Dry Wt., Percent Increase from Zero Time ([2]; low light, 16 hr): 45%
Leaf Area, Percent Increase from Zero Time ([2]; low light, 16 hr): 64%
Water Uptake ([2]; low light, 16 hr): 453 μl/cm^2 leaf area
Dry Weight (percent change) (IR-8 rice seedlings [3]; 1 hour): 4%
Dry Weight (percent change) (IR-8 rice seedlings [3]; 3 hours): 6%
Dry Weight (percent change) (IR-8 rice seedlings [3]; 6 hours): 10%
application rate that substantially increases crop growth (plants): ≥ 0.4 grams per acre
